Results published in patent US20130005718A1 (priority 2009, published 2013).
“And” between values parts separate entries of the source, which are not always exact repeats. Equal values may be shown once. “Also recorded” adds a separate entry of the source. Read-outs that look alike come from different tables or passages of the source.

Experiments:
[1] = in vivo; cited from earlier work
GABAA-Rs = conditions: cited from earlier work
HCN1 channels = biological target: T1, HCN1 channels (Mus musculus, UniProt O88704); experiment: Two-electrode voltage clamp (TEVC) of HCN1 channel gating in Xenopus oocytes; format: cell-based, murine; conditions: for HCN isoform preference (words): HCN1 versus HCN2, 3 or 4
T1 construct: expressed in transfected cells; host or cells: Xenopus oocytes (cRNA injection)

HCN2 = HCN2 (Mus musculus, UniProt O88703); conditions: 20 μM, n=6
Description: (§1) cDNA encoding murine (HCN1, 2 and 4) and human (HCN3) HCN channels were subcloned into pGH19 (HCN1 and 4) or pGHE (HCN2 and HCN3) vectors and amplified in STBL2 cells (Invitrogen Corporation, Carlsbad, Calif.). cRNA was transcribed from NheI (HCN1, HCN3 and HCN4) or SphI (HCN2) linearized DNA using T7 RNA polymerase (Message Machine; Ambion, Houston, Tex.). 11-50 ng RNA was injected into each Xenopus oocyte.
(§2) Recordings were made from Xenopus oocytes 2-5 days after cRNA injection. Cells were maintained in L-15 media without ficoll (Specialty Media, Phillipsburg, N.J.) at 17° C. until use.
(§3) Two microelectrode voltage clamp (TEVC) data, acquired using a Warner Instruments (Hamden, Conn.) OC-725C amplifier, were recorded with Pulse software (HEKA Elektronik, Lambrecht/Pfalz, Germany) following filtering of the wide bandwidth output of the clamp at 2.5 kHz (with a Frequency Devices 902 8-pole Bessel filter) and digitization at 5 kHz using an ITC-18 interface (Instrutech Corporation, Port Washington, N.Y.).
(§4) Microelectrodes were fabricated from 1B120-F4 borosilicate glass (World Precision Instruments, Sarasota, Fla.) and had resistances of 0.1-0.5 MΩ (I passing) and 1-4 MΩ (V sensing) when filled with 3 M KCl. The Ag—AgCl ground wire(s) of the active virtual ground circuit were connected to the bath solution by 3M KCl-2% agar salt bridges placed downstream of, but close to, the oocyte. Recordings were obtained at room temperature (22-24° C.).

HCN4 = HCN4 (Mus musculus, UniProt O70507); conditions: 20 μM, n=4
Description: as §1, §2, §3, §4

HCN3 = HCN3 (Homo sapiens, UniProt Q9P1Z3); conditions: 20 μM, n=6
Description: as §1, §2, §3, §4

righting reflex [2] = conditions: cited from earlier work
righting reflex [3] = conditions: i.p. cumulative up to 60 mg/kg
[4] = cited from earlier work
[5] = tested on: PNL-induced mechanical allodynia and hyperalgesia; experiment: Von Frey fiber test after partial sciatic nerve ligation (PNL); format: in vivo, C57 Black/6J mice
[6] = tested on: PNL-induced thermal hyperalgesia; experiment: Hind paw withdrawal latency (HPWL) to heat source after PNL; format: in vivo, C57 Black/6J mice; conditions: i.p., 15% heat stimulus
[7] = variously reported; cited from earlier work
[8] = HCN1 V1/2 dose-response, relative to 2,6-DTBP

T1 sequence (O88704 whole entry, canonical isoform): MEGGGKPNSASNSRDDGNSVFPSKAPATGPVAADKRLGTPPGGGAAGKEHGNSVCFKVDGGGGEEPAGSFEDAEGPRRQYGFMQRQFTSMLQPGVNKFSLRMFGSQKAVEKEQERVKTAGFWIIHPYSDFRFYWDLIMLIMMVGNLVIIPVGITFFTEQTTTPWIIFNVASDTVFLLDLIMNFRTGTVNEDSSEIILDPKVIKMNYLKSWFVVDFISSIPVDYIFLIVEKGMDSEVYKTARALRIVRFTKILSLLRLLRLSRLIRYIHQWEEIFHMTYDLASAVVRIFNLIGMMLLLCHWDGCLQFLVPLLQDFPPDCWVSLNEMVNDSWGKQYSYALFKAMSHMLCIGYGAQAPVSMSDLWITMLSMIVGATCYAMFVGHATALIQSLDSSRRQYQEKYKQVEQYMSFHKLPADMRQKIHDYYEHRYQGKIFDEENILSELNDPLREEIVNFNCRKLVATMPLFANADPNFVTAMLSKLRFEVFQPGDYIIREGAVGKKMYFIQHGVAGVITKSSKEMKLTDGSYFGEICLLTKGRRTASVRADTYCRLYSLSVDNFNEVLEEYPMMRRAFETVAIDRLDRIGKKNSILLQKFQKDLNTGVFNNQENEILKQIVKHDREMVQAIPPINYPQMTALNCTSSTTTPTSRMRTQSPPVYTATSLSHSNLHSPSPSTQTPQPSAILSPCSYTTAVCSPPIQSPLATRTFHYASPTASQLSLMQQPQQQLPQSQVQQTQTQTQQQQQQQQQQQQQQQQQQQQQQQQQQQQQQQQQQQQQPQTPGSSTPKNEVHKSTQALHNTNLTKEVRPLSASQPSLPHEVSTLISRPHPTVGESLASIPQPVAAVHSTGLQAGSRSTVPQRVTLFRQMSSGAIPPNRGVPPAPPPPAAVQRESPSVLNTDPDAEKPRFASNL
Sequence of HCN4 (O70507 whole entry): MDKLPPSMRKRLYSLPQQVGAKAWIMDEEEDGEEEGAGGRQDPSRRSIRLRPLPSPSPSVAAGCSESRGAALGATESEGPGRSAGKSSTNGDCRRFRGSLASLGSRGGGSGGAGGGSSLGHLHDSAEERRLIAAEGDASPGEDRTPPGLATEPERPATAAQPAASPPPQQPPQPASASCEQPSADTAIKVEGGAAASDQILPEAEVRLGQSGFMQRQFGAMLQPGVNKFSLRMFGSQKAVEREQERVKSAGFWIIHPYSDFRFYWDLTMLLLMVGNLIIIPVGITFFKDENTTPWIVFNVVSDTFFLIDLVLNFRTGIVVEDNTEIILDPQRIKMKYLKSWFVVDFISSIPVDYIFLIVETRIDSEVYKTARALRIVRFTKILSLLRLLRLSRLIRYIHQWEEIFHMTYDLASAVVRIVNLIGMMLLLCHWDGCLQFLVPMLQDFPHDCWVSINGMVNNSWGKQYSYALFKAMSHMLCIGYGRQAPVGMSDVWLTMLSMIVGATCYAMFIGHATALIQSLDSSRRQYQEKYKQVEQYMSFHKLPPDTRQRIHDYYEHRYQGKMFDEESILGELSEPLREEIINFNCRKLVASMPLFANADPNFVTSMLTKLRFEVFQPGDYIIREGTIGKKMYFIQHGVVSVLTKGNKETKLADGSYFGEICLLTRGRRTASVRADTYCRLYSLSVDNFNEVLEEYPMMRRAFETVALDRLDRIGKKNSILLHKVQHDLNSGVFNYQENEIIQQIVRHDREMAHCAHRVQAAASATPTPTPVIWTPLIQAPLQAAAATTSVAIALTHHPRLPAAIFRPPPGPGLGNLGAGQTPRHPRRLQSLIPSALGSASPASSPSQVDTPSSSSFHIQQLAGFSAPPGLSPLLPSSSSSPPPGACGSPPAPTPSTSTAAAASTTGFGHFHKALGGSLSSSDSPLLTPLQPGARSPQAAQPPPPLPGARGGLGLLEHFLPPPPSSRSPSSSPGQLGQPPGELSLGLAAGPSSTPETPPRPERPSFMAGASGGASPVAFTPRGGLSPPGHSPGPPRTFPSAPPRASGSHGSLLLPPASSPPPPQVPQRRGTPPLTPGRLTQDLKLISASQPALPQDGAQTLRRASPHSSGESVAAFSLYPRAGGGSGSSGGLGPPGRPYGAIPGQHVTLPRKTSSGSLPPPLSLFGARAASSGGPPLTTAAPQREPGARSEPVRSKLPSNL
Sequence of HCN2 (O88703 whole entry): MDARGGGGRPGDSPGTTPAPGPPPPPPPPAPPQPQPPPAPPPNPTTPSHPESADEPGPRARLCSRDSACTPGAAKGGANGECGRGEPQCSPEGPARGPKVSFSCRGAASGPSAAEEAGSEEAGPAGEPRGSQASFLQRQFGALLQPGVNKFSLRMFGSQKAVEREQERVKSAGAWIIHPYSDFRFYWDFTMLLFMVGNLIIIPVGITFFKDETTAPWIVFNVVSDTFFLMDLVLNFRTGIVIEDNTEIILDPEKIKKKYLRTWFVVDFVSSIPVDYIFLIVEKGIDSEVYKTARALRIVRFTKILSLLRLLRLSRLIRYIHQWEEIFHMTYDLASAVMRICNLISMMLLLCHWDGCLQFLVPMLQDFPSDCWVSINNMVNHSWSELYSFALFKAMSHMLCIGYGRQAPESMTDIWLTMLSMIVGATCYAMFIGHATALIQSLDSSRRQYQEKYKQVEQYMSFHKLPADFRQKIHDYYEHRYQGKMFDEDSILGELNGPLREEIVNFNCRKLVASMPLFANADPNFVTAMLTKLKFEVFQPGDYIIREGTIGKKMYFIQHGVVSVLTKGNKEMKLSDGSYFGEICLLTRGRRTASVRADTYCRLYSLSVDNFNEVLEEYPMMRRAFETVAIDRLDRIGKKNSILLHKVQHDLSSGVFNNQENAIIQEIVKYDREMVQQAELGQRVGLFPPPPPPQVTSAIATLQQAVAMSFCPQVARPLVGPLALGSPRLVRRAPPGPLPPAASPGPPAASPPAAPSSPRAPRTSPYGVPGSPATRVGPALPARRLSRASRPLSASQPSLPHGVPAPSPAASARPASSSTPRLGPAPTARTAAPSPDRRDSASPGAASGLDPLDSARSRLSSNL
Sequence of HCN3 (Q9P1Z3 whole entry): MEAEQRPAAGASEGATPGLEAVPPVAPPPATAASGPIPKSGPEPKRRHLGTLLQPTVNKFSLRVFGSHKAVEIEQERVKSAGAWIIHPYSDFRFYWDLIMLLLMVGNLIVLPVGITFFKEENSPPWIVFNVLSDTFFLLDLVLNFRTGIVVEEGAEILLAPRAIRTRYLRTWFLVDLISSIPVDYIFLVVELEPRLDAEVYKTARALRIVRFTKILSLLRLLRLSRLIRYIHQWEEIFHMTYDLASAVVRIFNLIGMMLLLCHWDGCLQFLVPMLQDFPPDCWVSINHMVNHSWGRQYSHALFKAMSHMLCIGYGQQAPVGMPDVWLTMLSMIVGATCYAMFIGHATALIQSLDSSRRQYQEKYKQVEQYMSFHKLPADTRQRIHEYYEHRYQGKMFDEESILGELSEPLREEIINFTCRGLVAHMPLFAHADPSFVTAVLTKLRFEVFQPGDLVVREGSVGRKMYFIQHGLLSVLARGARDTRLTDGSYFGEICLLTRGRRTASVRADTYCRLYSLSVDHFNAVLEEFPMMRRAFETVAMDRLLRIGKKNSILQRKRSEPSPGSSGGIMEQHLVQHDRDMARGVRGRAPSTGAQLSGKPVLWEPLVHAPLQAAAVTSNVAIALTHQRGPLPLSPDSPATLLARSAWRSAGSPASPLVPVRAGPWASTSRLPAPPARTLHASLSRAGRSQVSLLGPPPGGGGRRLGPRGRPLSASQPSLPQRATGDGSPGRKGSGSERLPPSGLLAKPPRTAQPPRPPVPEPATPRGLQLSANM

CCC(C)c1ccc(O)c(C(C)CC)c1 (stereo not shown) [2,4-DSBP, 2,4-di-sec-butylphenol]
anesthetic activity [1]: potent anesthetics
allosteric modulation of GABAA-Rs (GABAA-Rs): effective agonist of GABAA-Rs; also recorded: potent allosteric activators of the chloride channels
offset of the 2,6-DTBP Hill fit line needed to describe the data (HCN1 channels; [8]): 23 fold

CC(C)(C)c1ccc(O)c(C(C)(C)C)c1 [2,4-DTBP, 2,4-di-tert-butylphenol]
allosteric modulation of GABAA-Rs (GABAA-Rs): ineffective
HCN1 antagonism (HCN1 channels): effective antagonist of HCN1
offset of the 2,6-DTBP Hill fit line needed to describe the data (HCN1 channels): 2 fold
HCN isoform preference (words) (HCN1 channels): preferentially inhibit HCN1 with little efficacy against HCN2, 3 or 4 channels

CCC(C)c1cccc(C(C)CC)c1O (stereo not shown) [2,6-DSBP, 2,6-di-sec-butylphenol]
anesthetic activity [1]: potent anesthetics
allosteric modulation of GABAA-Rs (GABAA-Rs): potent allosteric activators of the chloride channels
HCN1 antagonism (HCN1 channels): weak HCN1 antagonist
offset of the 2,6-DTBP Hill fit line needed to describe the data (HCN1 channels; [8]): 15 fold

CC(C)c1cccc(C(C)C)c1O [propofol]
ΔV1/2 of HCN2 (HCN2): −9.1 mV
ΔV1/2 of HCN4 (HCN4): 0.1 mV
ΔV1/2 of HCN3 (HCN3): −0.6 mV
i.p. dose required for obviation of righting reflex (righting reflex [2]; i.p.): greater than 100 mg/kg
intravenous dose for anesthesia (righting reflex [2]; mice, i.v.): 5 mg/kg
loss of righting reflex (righting reflex [3]): No animals lost their righting reflex
Plasma [propofol] Total ([4]; Engdahl et al., 1998): 2.2 µg/mL
steady-state free concentration in the plasma ([4]; during general anesthesia): ~1 µM
difference between PW IPSI and PW CONTRA ([5]; 20 mg/kg i.p.): significantly reduced
PW IPSI response ([5]; 60 mg/kg i.p. cumulative): indistinguishable from the control value of PW CONTRA
effect on PW CONTRA, mechanical nociception ([5]; 20 to 60 mg/kg i.p.): no statistically significant effect
neuropathic analgesia occurs at doses lower than hypnosis/anesthesia ([5]; i.p.): 3-10 fold and 3 to 10 fold
mechanical hyperalgesia/allodynia in ipsilateral paw ([5]; i.p. cumulative dosing, post-PNL mice): markedly reduced the mechanical hyperalgesia observed in the ipsilateral paw; also recorded: selectively suppresses partial sciatic nerve ligation (PNL)-induced mechanical allodynia and hyperalgesia
PW IPSI as a function of control PW CONTRA (ratio) after drug ([5]; i.p., 2.5 to 4 g fibers averaged, 3.3 before drug, unity = complete amelioration): 1.6
reversal of the neuropathic phenotype ([5]; subhypnotic i.p. doses, 2.5 to 4 g fibers averaged): about 75%
mechanical threshold, Logit transformation (allodynia, words) ([5]; threshold set at PW of 0.1): selectively restored the mechanical threshold to that observed in the uninjured paw
EC50 (HCN1 channels; EC50 for hyperpolarization of V1/2 of HCN1 gating (Hill fit), 20 min incubation, Xenopus oocytes, TEVC): 7 to 13 µM and 13 µM and ~13 µM
HCN isoform preference (words) (HCN1 channels): preferentially inhibits HCN1 with little efficacy against HCN2, 3 or 4 channels
apparent stoichiometry h (Hill coefficient) (HCN1 channels; Hill fit of dose-response): 1.1
concentration at which shift in HCN1 V1/2 was significant (HCN1 channels; versus DMSO control): ≥ 3 µM
Plasma [propofol] Total (Engdahl et al., 1998, calculated with MW 178.3): 12.3 µM
estimated serum free concentration evoking analgesia (estimated from 3 to 10 fold lower doses than anesthesia): 0.1 to 0.3 µM
CSF concentration required for anesthesia relative to plasma (from Table 2): approximately one-tenth
thermal hyperalgesia, ipsilateral HPWL (words) [6]: powerfully and preferentially relieved neuropathic thermal hyperalgesia; also recorded: relieve the neuropathic behavior; also recorded: selectively ameliorate PNL-induced thermal hyperalgesia
thermal nociception, contralateral HPWL [6]: without significantly altering nociceptive behavior
aqueous solubility limit [7]: 864 to 1740 µM
